The values that follow are results of earlier work, collected in patent US20250009831A1, “COMBINATION OF SCUTELLARIA EXTRACTS WITH CITRUS BERGAMIA OR CYNARA CARDUNCULUS EXTRACTS AND FORMULATIONS CONTAINING THEM” (AKHYNEX S.R.L., priority 2021, published 2025).

This series concerns rats treated with orotic acid to induce fatty liver disease.

As to `O=C(O)[C@H]1O[C@@H](Oc2cc3oc(-c4ccccc4)cc(=O)c3c(O)c2O)[C@H](O)[C@@H](O)[C@@H]1O` [baicalin], the FFA-induced lipotoxicity entry (rat, in vivo) was “had a preventive effect on FFA-induced lipotoxicity”. For the setting “rats treated with orotic acid”, the “accumulation of fats in the liver” value was “inhibited the accumulation of fats in the liver” and the “hypertrophy of the hepatocytes” value is recorded as “attenuated hypertrophy of the hepatocytes”.
